Test results: patent US20240366618A1, “CGRP Antagonists for Treating Trigeminal Neuralgia” (Pfizer Ireland Pharmaceuticals, priority 2021, published 2024)
Entries after “also recorded” stand apart in the source; their conditions may differ.

What was measured:
[1] = test system: classic trigeminal neuralgia; details: patients with classic trigeminal neuralgia; cited from earlier work
[2] = test system: migraine; test: Three double-blind, placebo-controlled BHV-3000 migraine studies; format: in vivo, human; details: 75 mg dose
[3] = test system: refractory atypical trigeminal neuralgia; test: Case study: oral rimegepant in one patient with refractory atypical trigeminal neuralgia; format: in vivo, human; design: key to Barrow Neurological Institute (BNI) pain intensity score: II: defined as no pain on medication; details: for adverse effects / tolerability / treatment efficacy in words: treatment period of six months
Description: In this study, refractory atypical trigeminal neuralgia was successfully treated using rimegepant, a novel oral calcitonin gene-related peptide (CGRP) antagonist. The patient experienced a decrease in pain from seven to nine out of 10 to 0 out of 10 within one day of therapy initiation. […] Thus, this case illustrates the promise of CGRP antagonist therapy as a novel treatment for trigeminal neuralgia, including atypical trigeminal neuralgia.
A person with a 5-year history of TN presented with episodic sharp, stabbing and constant burning pain along the V2 nerve distribution. Their pain was triggered by sensation on their upper right teeth, including wind, mastication, and extreme-temperature fluids. Their self-reported pain score ranged from seven to nine out of 10, and their Barrow Neurological Institute (BNI) pain intensity score was rated IV out of V, defined as inadequate pain control with medication. At presentation, their pain regimen consisted of 300 mg oxcarbazepine per day, up to eight 15 mg tablets of oxycodone per day, and 10 mcg per hour transdermal buprenorphine patch. On neurological exam, sensation was intact to light touch bilaterally except along the right nasolabial fold, and grimace was symmetric. The patient experienced impairment in ability to perform daily activities, such as eating, working, and speaking. Other associated symptoms included headache, fatigue, and significant weight loss.
Prior to presentation, the patient unsuccessfully tried several medications for pain control, including oxcarbazepine, meperidine, carisoprodol, propranolol, pregabalin, sumatriptan, and ergot. They also failed medical cannabinoids, oxygen therapy, trigger point injections, and sphenopalatine nerve blockades. They underwent four surgical procedures at outside institutions, including Gamma Knife radiosurgery (37 months prior to presentation), right balloon rhizotomy (31 months prior to presentation), radiofrequency ablation (22 months prior to presentation), and a V2-3 radiofrequency rhizotomy (14 months prior to presentation).
Given their sharp/stabbing pain, we offered them a microvascular decompression (MVD).
After multiple trials of different medications for six years after their MVD, the patient was started on 75 mg of rimegepant per day. Within 12 hours of their first dose, their self-reported pain score improved to 0 out of 10. […] They rarely had mild (2 out of 10) pain, which was controlled with 1 mg buprenorphine. Their BNI pain intensity score was reduced to II, defined as no pain on medication.

[4] = Ongoing long-term safety study of rimegepant; format: in vivo, human; details: 75 mg dose; preliminary data
[5] = test system: migraine; details: cited from earlier work
[6] = test system: trigeminal neuralgia; details: cited from earlier work
[7] = 75 mg per day, listed as Rimegepant
[8] = acute migraine treatment trial, fast-dissolve orally disintegrating tablet (ODT) formulation

## NC(=O)N1c2ccccc2CC(=O)c2ccccc21 [oxcarbazepine]
[1]
  response rates with initial therapy: approximately 70%

## N[C@@H]1c2cccnc2[C@H](OC(=O)N2CCC(n3c(=O)[nH]c4ncccc43)CC2)CC[C@H]1c1cccc(F)c1F [rimegepant, (5S,6S,9R)-5-amino-6-(2,3-difluorophenyl)-6,7,8,9-tetrahydro-5H-cyclohepta[b]pyridine-9-yl-4-(2-oxo-2,3-dihydro-1H-imidazo[4,5-b]pyridine-1-yl)piperidine-1-carboxylate]
[2]
  efficacy for the treatment of migraine in words: effective
[3]; 75 mg of rimegepant per day
  time after first dose until self-reported pain score improved to 0 out of 10: ≤ 12 h
[3]; 75 mg of rimegepant per day, within 12 hours of first dose, before treatment seven to nine out of 10
  self-reported pain score: 0 out of 10
[3]; on 75 mg rimegepant per day, before treatment IV out of V
  Barrow Neurological Institute (BNI) pain intensity score: II
[3]; oral rimegepant
  time after therapy initiation until pain decreased to 0 out of 10: one
[3]; patient-reported, six-month treatment period
  mood and cognition: drastic improvement in mood and cognition
[3]; six-month treatment period, 75 mg per day, controlled with 1 mg buprenorphine
  rare mild pain during treatment: 2 out of 10
[3]; 75 mg per day
  adverse effects / tolerability: no significant adverse effects
  treatment efficacy in words: continues to be efficacious; also recorded: mostly had no pain
[3]; [7]
  adverse effects / tolerability: well tolerated
  treatment efficacy in words: maintains efficacy over a period of six months
[3]; 75 mg per day, listed as rigemepant
  adverse effects / tolerability: lack of adverse effects
[3]; within one day of therapy initiation, before treatment seven to nine out of 10
  pain: 0 out of 10
[4]
  tolerability in words: well tolerated
[5]; [8]
  time postdose at which statistically significant benefit for pain relief was demonstrated: 60 min
  time postdose at which statistically significant benefit on achieving pain freedom was demonstrated: 90 min
[5]; migraine trials
  safety profile in words: favorable safety profile
[5]; orally administered, preventive and acute treatment
  efficacy in migraine in words: proven efficacy in the preventive and acute treatment of migraine

## NC(=O)N1c2ccccc2C=Cc2ccccc21 [carbamazepine]
[1]
  response rates with initial therapy: approximately 70%

B1: erenumab: an injected anti-CGRP monoclonal antibody (antibody, chains of the INN, looked up, V domains shown)
VH: QVQLVESGGGVVQPGRSLRLSCAASGFTFSSFGMHWVRQAPGKGLEWVAVISFDGSIKYSVDSVKGRFTISRDNSKNTLFLQMNSLRAEDTAVYYCARDRLNYYDSSGYYHYKYYGMAVWGQGTTVTVSS
VL: QSVLTQPPSVSAAPGQKVTISCSGSSSNIGNNYVSWYQQLPGTAPKLLIYDNNKRPSGIPDRFSGSKSGTSTTLGITGLQTGDEADYYCGTWDSRLSAVVFGGGTKLTVL
[6]; in vivo
  patients reporting constipation and/or injection site reaction: three
  side effects in words: minimal
[6]; injected erenumab
  patients with significant decrease in trigeminal neuralgia pain: nine
[6]; of 10 patients treated with erenumab
  patients reporting complete pain resolution: five
